What was measured:
[1] = biological target: T1, CXCR3 (Homo sapiens, UniProt P49682); assay: biochemical; assay type: binding; parameters: expressed in transfected cells; host or cells: CHO cells (membrane preparation)
T1 sequence (P49682 1-368): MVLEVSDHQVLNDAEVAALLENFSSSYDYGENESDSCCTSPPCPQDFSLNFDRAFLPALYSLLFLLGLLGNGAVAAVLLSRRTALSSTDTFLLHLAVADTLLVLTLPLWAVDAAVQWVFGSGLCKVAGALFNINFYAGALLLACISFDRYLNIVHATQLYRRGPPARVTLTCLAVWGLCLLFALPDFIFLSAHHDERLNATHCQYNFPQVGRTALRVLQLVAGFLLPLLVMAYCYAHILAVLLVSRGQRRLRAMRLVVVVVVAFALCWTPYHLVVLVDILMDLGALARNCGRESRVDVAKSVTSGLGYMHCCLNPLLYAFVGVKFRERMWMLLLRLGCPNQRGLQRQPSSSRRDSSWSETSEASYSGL
Description: a) CXCR3 Membrane Binding Assay
A ligand binding assay is used to identify inhibitors of I-TAC binding to CXCR3 expressing membranes. Cell membranes are prepared from CHO cells transfected with human CXCR3. The binding of the ^125I labeled CXCR3 ligand e.g. I-TAC (CXCL11) to CXCR3 is assessed using the Scintillation Proximity Assay (SPA) technology (Amersham Pharmacia Biotech). Buffer or serial dilutions of compound are incubated for 2 hours at room temperature with labeled CXCR3 ligand (e.g. I-TAC), CXCR3 expressing membranes and WGA coated PVT beads. The plates are then centrifuged and counted in a Topcount (Packard) instrument. The data are reported as the concentration of compound required to achieve 50% inhibition of ^125I ligand binding.

[2] = biological target: T1, CXCR3; assay: cell-based; parameters: expressed in transfected cells; host or cells: L1.2 cells (mouse pre-B cell line)
Description: b) CXCR3 Functional Assay—Ca^2+ Mobilization
CXCR3 ligand-induced Ca^2+ mobilization is assessed in CXCR3 transfected L1.2 cells (a mouse pre B cell line). For this, cells are loaded with the Ca^2+-sensitive fluorochrome Fluo-4 (Molecular Probes). After washing, the cells are pre-incubated with low molecular weight inhibitors for 2 h at room temperature. The transient increase in intracellular Ca^2+ after the addition of the CXCR3 ligand (e.g. I-TAC) is monitored in a fluorescence image plate reader (FLIPR) instrument. The inhibition of CXCR3 ligand induced Ca^2+ mobilization in the presence of CXCR3 antagonists is reported as IC50 values i.e. the concentration of compound which reduces the maximal Ca^2+ response to 50%.

[3] = biological target: T1, CXCR3; assay: CXCR3 functional assay - chemotaxis; assay type: cell-based; parameters: expressed in transfected cells; host or cells: L1.2 cells (mouse pre-B cell line); settings: CXCR3 transfected L-1.2 cells; I-TAC; 4 h at 37° C.; read-out: IC50, concentration which leads to a reduction of migrated cells by 50%
Description: c) CXCR3 Functional Assay—Chemotaxis
The directed cell migration induced by CXCR3 ligands e.g. I-TAC is assessed using 96-well disposable chemotaxis chambers (Multiscreen MIC, Costar) with polycarbonate membranes containing pores of 5 μm diameter. Chemokine (e.g. I-TAC) is placed in the bottom well of the chamber and cells (e.g. CXCR3 transfected L-1.2 cells) are placed in the top compartment of the chemotaxis chamber. Cell migration across the porous membrane is allowed for 4 h at 37° C. Cells migrated from the top compartment to the bottom compartment are quantified by flow cytometry. When LMW inhibitors are tested, compounds are added to both compartments at the identical concentrations; Serial dilutions of compounds are tested to assess their inhibitory effect on CXCR3 dependent cell migration. The concentration of LMW CXCR3 inhibitors which leads to a reduction of migrated cells by 50% is reported as IC50. In this assay, the compounds of formula I have an IC50 value from 1 μM-1 nM.

[4] = membranes of CHO cells transfected with human CXCR3, 125I I-TAC (CXCL11), 2 hours at room temperature, read-out: IC50, concentration of compound required to achieve 50% inhibition of 125I ligand binding
[5] = CXCR3 transfected L1.2 cells (mouse pre B cell line), CXCR3 ligand (e.g. I-TAC), pre-incubation 2 h at room temperature, read-out: IC50, concentration of compound which reduces the maximal Ca2+ response to 50%

| SMILES | IC50 [1, 4] | IC50 [2, 5] | IC50 [1] | IC50 [2] | IC50 [3] |
| --- | --- | --- | --- | --- | --- |
| O=C([C@@H]1C=C2c3cccc4[nH]cc(c34)C[C@H]2N(C(=O)Nc2ccccc2F)C1)N1CCCC1 [Example 59] | 43 nM | 20 nM |  |  |  |
| CC(C)OC(=O)Cn1cc2c3c(cccc31)C1=C[C@@H](C(=O)N3CCCC3)CN(C(=O)Nc3ccccc3)[C@@H]1C2 [Example 79, [(6aR,9R)-7-Phenylcarbamoyl-9-(pyrrolidine-1-carbonyl)-6a,7,8,9-tetrahydro-6H-indolo[4,3-fg]quinolin-4-yl]-acetic acid isopropyl ester] |  |  | 145 nM | 53 nM |  |
| O=C([C@@H]1C=C2c3cccc4[nH]cc(c34)C[C@H]2N(C(=O)Nc2ccccc2)C1)N1CCC1 [Example 23] | 61 nM | 8 nM |  |  |  |
| O=C([C@@H]1C=C2c3cccc4[nH]cc(c34)C[C@H]2N(C(=O)Nc2ccccc2)C1)N1CCOCC1 [Example 43] |  |  | 23 nM | 16 nM | 75 nM |

Source: US7666877B2, “Ergoline derivatives” (priority 2005, dated 2010)
